Assay results from patent US20240060047A1, “CELLS WITH SUSTAINED TRANSGENE EXPRESSION” (BlueRock Therapeutics LP, priority 2019, published 2024).

Legend:
GAPDH locus = assay: gRNA cutting efficiency by ICE analysis, GAPDH locus; format: cell-based; conditions: RNP with Cas9 nucleofected into human PSCs, gDNA at 72 hours
Experimental: (§1) CRISPR-Cas9 gene editing was performed to insert transgenes into the intended STEL sites in the following experiments. Three guide RNAs (gRNAs) were designed computationally to target the 3′ UTR of GAPDH proximal to the stop codon. Five gRNAs were designed computationally to target the 3′ UTR of RPL13A proximal to the stop codon. These gRNAs were designed to have a low number of off-target sites and have a high predicted activity against the target sequence.
(§2) To test gRNA cutting efficiency, gRNAs complexed with Cas9 nuclease were delivered as ribonucleoproteins (RNPs) separately into human PSCs via nucleofection. At 72 hours following nucleofection, gDNA was extracted from each pool of nucleofected cells. A region around the GAPDH or RPL13A locus intended cut site was PCR-amplified using the following primers: […]
(§3) Overall cutting efficiency of each gRNA was determined by Inference of CRISPR Edits (ICE) Analysis by comparing a Sanger sequencing chromatogram from unedited cells to the Sanger sequencing chromatogram from each gRNA condition.

RPL13A locus = assay: gRNA cutting efficiency by ICE analysis, RPL13A locus; format: cell-based; conditions: RNP with Cas9 nucleofected into human PSCs, gDNA at 72 hours
Experimental: as §1, §2, §3

[1] = test system: GAPDH-targeted RapaCasp9 PSC line; assay: Flow cytometric analysis of cleaved Caspase 3 after rapamycin treatment; format: cell-based, human; conditions: 5nM or 10 nM rapamycin, 24 hours of treatment
Experimental: A GAPDH-targeted RapaCasp9 PSC line was treated with either 5nM or 10 nM of rapamycin for 1, 2, 4 or 24 hours, and cells were harvested for flow cytometric analysis after each timepoint (FIG. 17). The primary antibody used was an anti-human/mouse cleaved caspase-3 conjugated to an Alexa Fluor® 488 […]. The primary antibody detects human and mouse Caspase 3 cleaved at Asp175. Caspase 3 is an executioner caspase that functions downstream of the initiator caspase, Caspase 9, in the apoptotic cascade. […] Upon induction of apoptosis through either cell stress or activation, it undergoes proteolysis into cleaved Caspase 3 subunits. […] There was negligible detection of cleaved Caspase 3 for edited PSCs not treated with rapamycin.

Question: Which relative cutting efficiency (GAPDH locus) does the source give for “5′-CUUCCUCUUGUGCUCUUGCU-3′ (SEQ ID NO:7) (listed as RNA, chemistry not given here) [GAPDH gRNA, guide RNA targeting the 3′ UTR of GAPDH proximal to the stop codon]” here?
Answer: highest relative cutting efficiencies

Question: Which relative cutting efficiency (RPL13A locus) does the source give for “5′-GGAAGGGCAGGCAACGCAUG-3′ (SEQ ID NO:8) (listed as RNA, chemistry not given here) [RPL13A gRNA, guide RNA targeting the 3′ UTR of RPL13A proximal to the stop codon]” here?
Answer: highest relative cutting efficiencies

Question: Which “cells staining for cleaved Caspase 3” value [1] does the source give for `CO[C@H]1C[C@@H]2CC[C@@H](C)[C@@](O)(O2)C(=O)C(=O)N2CCCC[C@H]2C(=O)O[C@H]([C@H](C)C[C@@H]2CC[C@@H](O)[C@H](OC)C2)CC(=O)[C@H](C)/C=C(\C)[C@@H](O)[C@@H](OC)C(=O)[C@H](C)C[C@H](C)/C=C/C=C/C=C/1C` [rapamycin] here?
Answer: > 99%
